# System: subjects with moderate-to-severe plaque psoriasis
# Test: IGA score, Example 1
# Format: in vivo, human
# Procedure: The Investigator's Global Assessment (IGA) documents the investigator's assessment of the participant's psoriasis at a given time point. Overall lesions are graded for induration, erythema, and scaling. The participant's psoriasis is assessed as cleared (0), minimal (1), mild (2), moderate (3), or severe (4).
# This was a randomized, double-blind, placebo-controlled, dose-ranging, parallel group, multicenter, interventional study in subjects with moderate-to-severe plaque psoriasis. A target of 240 subjects were enrolled in this study with 40 subjects planned per intervention group.
# Clinician-reported outcomes including Psoriasis Area and Severity Index (PASI), Body Surface Area (BSA), Investigator's Global Assessment (IGA), Nail Psoriasis Area and Severity Index (NAPSI), Fingernail Physician's Global Assessment (f-PGA), Static Physician's Global Assessment of Genitalia (s-PGA-G), Physician's Global Assessment of Hands and/or Feet (hf-PGA), and Scalp Specific Investigator Global Assessment (ss-IGA) were obtained at Week 0, 8, and 16. PASI and IGA were also obtained at Weeks 1, 2, 4, and 12, and at Week 20, four weeks after the administration of the tablets has stopped.
# [1] = 100 mg BID, Week 16, trough plasma conc Q2 to <Q3
# [2] = 100 mg BID, Week 16, trough plasma conc ≥Q3
# [3] = 100 mg QD, Week 16, peak plasma conc. <Q1, N=2
# [4] = 100 mg QD, Week 16, peak plasma conc. Q1 to <Q2, N=2
# [5] = 100 mg QD, Week 16, peak plasma conc. Q2 to <Q3, N=2
# [6] = 100 mg QD, Week 16, peak plasma conc. ≥Q3, N=2
# [7] = 100 mg QD, Week 16, trough plasma conc <Q1
# [8] = 100 mg QD, Week 16, trough plasma conc Q1 to <Q2
# [9] = 100 mg QD, Week 16, trough plasma conc Q2 to <Q3
# [10] = 100 mg QD, Week 16, trough plasma conc ≥Q3
# [11] = Combined doses, Week 16, peak plasma conc. <Q1, N=10
# [12] = Combined doses, Week 16, peak plasma conc. Q1 to <Q2, N=11
# [13] = Combined doses, Week 16, peak plasma conc. Q2 to <Q3, N=10
# [14] = Combined doses, Week 16, peak plasma conc. ≥Q3, N=11
# [15] = Combined doses, Week 16, trough plasma conc <Q1
# [16] = Combined doses, Week 16, trough plasma conc Q1 to <Q2
# [17] = Combined doses, Week 16, trough plasma conc Q2 to <Q3
# [18] = Combined doses, Week 16, trough plasma conc ≥Q3
# [19] = Week 16, 25 mg BID, intermediate plasma concentration quartile <Q1, N=1
# [20] = Week 16, 25 mg BID, intermediate plasma concentration quartile Q1 to <Q2, N=1
# [21] = Week 16, 25 mg BID, intermediate plasma concentration quartile Q2 to <Q3, N=1
# [22] = Week 16, 25 mg BID, intermediate plasma concentration quartile ≥Q3, N=1
# [23] = Week 16, 25 mg QD, intermediate plasma concentration quartile Q1 to <Q2, N=1
# [24] = Week 16, 25 mg QD, intermediate plasma concentration quartile Q2 to <Q3, N=1
# [25] = Week 16, 25 mg QD, intermediate plasma concentration quartile ≥Q3, N=1
# [26] = Week 16, 50 mg QD, intermediate plasma concentration quartile <Q1, N=1
# [27] = Week 16, 50 mg QD, intermediate plasma concentration quartile Q1 to <Q2, N=1
# [28] = Week 16, 50 mg QD, intermediate plasma concentration quartile Q2 to <Q3, N=1
# [29] = Week 16, 50 mg QD, intermediate plasma concentration quartile ≥Q3, N=2
# [30] = Week 16, 100 mg BID, intermediate plasma concentration quartile <Q1, N=1
# [31] = Week 16, 100 mg BID, intermediate plasma concentration quartile Q1 to <Q2, N=1
# [32] = Week 16, 100 mg BID, intermediate plasma concentration quartile Q2 to <Q3, N=1
# [33] = Week 16, 100 mg BID, intermediate plasma concentration quartile ≥Q3, N=2
# [34] = Week 16, 100 mg QD, intermediate plasma concentration quartile <Q1, N=1
# [35] = Week 16, 100 mg QD, intermediate plasma concentration quartile Q1 to <Q2, N=1
# [36] = Week 16, 100 mg QD, intermediate plasma concentration quartile Q2 to <Q3, N=1
# [37] = Week 16, 100 mg QD, intermediate plasma concentration quartile ≥Q3, N=1
# [38] = Week 16, Combined regimens, intermediate plasma concentration quartile <Q1, N=5
# [39] = Week 16, Combined regimens, intermediate plasma concentration quartile Q1 to <Q2, N=5
# [40] = Week 16, Combined regimens, intermediate plasma concentration quartile Q2 to <Q3, N=5
# [41] = Week 16, Combined regimens, intermediate plasma concentration quartile ≥Q3, N=6
smiles,measurement,setting,value
"CC(=O)NCCCC[C@@H]1NC(=O)[C@H](Cc2c[nH]c3c(C)cccc23)NC(=O)[C@H]([C@@H](C)O)NC(=O)[C@H](CC(N)=O)NC(=O)[C@@H](NC(C)=O)C(C)(C)SSC(C)(C)[C@@H](C(=O)N[C@@H](Cc2ccc(OCCN)cc2)C(=O)N[C@@H](Cc2ccc3ccccc3c2)C(=O)NC2(C(=O)N[C@@H](CCC(=O)O)C(=O)N[C@@H](CC(N)=O)C(=O)N[C@@H](Cc3cccnc3)C(=O)N(C)CC(N)=O)CCOCC2)NC1=O [IL-23 receptor antagonist peptide, Ac-[Pen]*-N-T-[W(7-Me)]-[Lys(Ac)]-[Pen]*-Phe[4-(2-aminoethoxy)]-[2-Nal]-[THP]-E-N-[3-Pal]-Sarc-NH2 (*[Pen]-[Pen]* formdisulfidebond)]","IGA Score = 0 or 1, subjects","100 mg BID, Week 16, trough plasma conc Q1 to <Q2",4 (80.0%)
same,"IGA Score = 0, subjects",[1],2 (40.0%)
same,"IGA Score = 0 or 1, subjects",[1],3 (60.0%)
same,"IGA Score = 0, subjects",[2],3 (60.0%)
same,"IGA Score = 0 or 1, subjects",[2],4 (80.0%)
same,IGA 0 or 1 treatment difference vs placebo,"100 mg QD, Week 16","51.2% (34.0%,"
same,IGA 0 treatment difference vs placebo,"100 mg QD, Week 16","27.9% (14.6%,"
same,Subjects achieving IGA Score = 0,"100 mg QD, Week 16",12 (27.9%)
same,Subjects achieving IGA Score = 0 or 1,"100 mg QD, Week 16",27 (62.8%)
same,"IGA score 0, %","100 mg QD, Week 16, N=43",27.9%
same,"IGA score 0/1, %","100 mg QD, Week 16, N=43",62.8%
same,"IGA Score = 0, % subjects",[3],(50.0%)
same,"IGA Score = 0, n subjects",[3],1
same,"IGA Score = 0 or 1, % subjects",[3],(50.0%)
same,"IGA Score = 0 or 1, n subjects",[3],1
same,"IGA Score = 0, % subjects",[4],(50.0%)
same,"IGA Score = 0, n subjects",[4],1
same,"IGA Score = 0 or 1, % subjects",[4],(100.0%)
same,"IGA Score = 0 or 1, n subjects",[4],2
same,"IGA Score = 0, % subjects",[5],(50.0%)
same,"IGA Score = 0, n subjects",[5],1
same,"IGA Score = 0 or 1, % subjects",[5],(50.0%)
same,"IGA Score = 0 or 1, n subjects",[5],1
same,"IGA Score = 0, n subjects",[6],0
same,"IGA Score = 0 or 1, % subjects",[6],(50.0%)
same,"IGA Score = 0 or 1, n subjects",[6],1
same,"IGA Score = 0, subjects",[7],3 (60.0%)
same,"IGA Score = 0 or 1, subjects",[7],3 (60.0%)
same,"IGA Score = 0, subjects",[8],0
same,"IGA Score = 0 or 1, subjects",[8],3 (60.0%)
same,"IGA Score = 0, subjects",[9],1 (20.0%)
same,"IGA Score = 0 or 1, subjects",[9],3 (60.0%)
same,"IGA Score = 0, subjects",[10],1 (20.0%)
same,"IGA Score = 0 or 1, subjects",[10],3 (60.0%)
same,"IGA Score = 0, % subjects",[11],(10.0%)
same,"IGA Score = 0, n subjects",[11],1
same,"IGA Score = 0 or 1, % subjects",[11],(30.0%)
same,"IGA Score = 0 or 1, n subjects",[11],3
same,"IGA Score = 0, % subjects",[12],(36.4%)
same,"IGA Score = 0, n subjects",[12],4
same,"IGA Score = 0 or 1, % subjects",[12],(72.7%)
same,"IGA Score = 0 or 1, n subjects",[12],8
same,"IGA Score = 0, % subjects",[13],(30.0%)
same,"IGA Score = 0, n subjects",[13],3
same,"IGA Score = 0 or 1, % subjects",[13],(80.0%)
same,"IGA Score = 0 or 1, n subjects",[13],8
same,"IGA Score = 0, % subjects",[14],(45.5%)
same,"IGA Score = 0, n subjects",[14],5
same,"IGA Score = 0 or 1, % subjects",[14],(63.6%)
same,"IGA Score = 0 or 1, n subjects",[14],7
same,"IGA Score = 0, subjects",[15],10 (38.5%)
same,"IGA Score = 0 or 1, subjects",[15],14 (53.8%)
same,"IGA Score = 0, subjects",[16],5 (19.2%)
same,"IGA Score = 0 or 1, subjects",[16],12 (46.2%)
same,"IGA Score = 0, subjects",[17],5 (19.2%)
same,"IGA Score = 0 or 1, subjects",[17],15 (57.7%)
same,"IGA Score = 0, subjects",[18],10 (37.0%)
same,"IGA Score = 0 or 1, subjects",[18],21 (77.8%)
same,"IGA Score = 0, subjects n (%)",[19],0
same,"IGA Score = 0 or 1, subjects n (%)",[19],0
same,"IGA Score = 0, subjects n (%)",[20],0
same,"IGA Score = 0 or 1, subjects n (%)",[20],1 (100.0%)
same,"IGA Score = 0, subjects n (%)",[21],0
same,"IGA Score = 0 or 1, subjects n (%)",[21],0
same,"IGA Score = 0, subjects n (%)",[22],0
same,"IGA Score = 0 or 1, subjects n (%)",[22],1 (100.0%)
same,"IGA Score = 0, subjects n (%)",[23],0
same,"IGA Score = 0 or 1, subjects n (%)",[23],0
same,"IGA Score = 0, subjects n (%)",[24],1 (100.0%)
same,"IGA Score = 0 or 1, subjects n (%)",[24],1 (100.0%)
same,"IGA Score = 0, subjects n (%)",[25],0
same,"IGA Score = 0 or 1, subjects n (%)",[25],0
same,"IGA Score = 0, subjects n (%)",[26],0
same,"IGA Score = 0 or 1, subjects n (%)",[26],0
same,"IGA Score = 0, subjects n (%)",[27],1 (100.0%)
same,"IGA Score = 0 or 1, subjects n (%)",[27],1 (100.0%)
same,"IGA Score = 0, subjects n (%)",[28],1 (100.0%)
same,"IGA Score = 0 or 1, subjects n (%)",[28],1 (100.0%)
same,"IGA Score = 0, subjects n (%)",[29],0
same,"IGA Score = 0 or 1, subjects n (%)",[29],1 (50.0%)
same,"IGA Score = 0, subjects n (%)",[30],1 (100.0%)
same,"IGA Score = 0 or 1, subjects n (%)",[30],1 (100.0%)
same,"IGA Score = 0, subjects n (%)",[31],1 (100.0%)
same,"IGA Score = 0 or 1, subjects n (%)",[31],1 (100.0%)
same,"IGA Score = 0, subjects n (%)",[32],0
same,"IGA Score = 0 or 1, subjects n (%)",[32],0
same,"IGA Score = 0, subjects n (%)",[33],2 (100.0%)
same,"IGA Score = 0 or 1, subjects n (%)",[33],2 (100.0%)
same,"IGA Score = 0, subjects n (%)",[34],1 (100.0%)
same,"IGA Score = 0 or 1, subjects n (%)",[34],1 (100.0%)
same,"IGA Score = 0, subjects n (%)",[35],1 (100.0%)
same,"IGA Score = 0 or 1, subjects n (%)",[35],1 (100.0%)
same,"IGA Score = 0, subjects n (%)",[36],0
same,"IGA Score = 0 or 1, subjects n (%)",[36],1 (100.0%)
same,"IGA Score = 0, subjects n (%)",[37],0
same,"IGA Score = 0 or 1, subjects n (%)",[37],1 (100.0%)
same,"IGA Score = 0, subjects n (%)",[38],3 (60.0%)
same,"IGA Score = 0 or 1, subjects n (%)",[38],3 (60.0%)
same,"IGA Score = 0, subjects n (%)",[39],2 (40.0%)
same,"IGA Score = 0 or 1, subjects n (%)",[39],3 (60.0%)
same,"IGA Score = 0, subjects n (%)",[40],1 (20.0%)
same,"IGA Score = 0 or 1, subjects n (%)",[40],3 (60.0%)
same,"IGA Score = 0, subjects n (%)",[41],3 (50.0%)
same,"IGA Score = 0 or 1, subjects n (%)",[41],5 (83.3%)
